This assay addresses T1, BCL6 (Homo sapiens, UniProt P41182).
T1 construct: endogenous in cells; host or cells: T47D breast cancer epithelial cells
Nature of the assay: Immunofluorescence protocol for high content imaging of BCL6 (degradation) in T47D cells, 3 days compound treatment. In kind it is cell-based. The conditions noted are these: T47D cells, 3 days compound treatment; for DC50: read-out: Mean DC50 (nM)* category; for Dmax: read-out: Mean Dmax (%)** category. In outline: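 T47D cells in RPMI1640-10% FBS were treated with an 11-point 3-fold dilution series (final top 0.1 or 1 μM) for 3 days at 37° C. After PFA fixation and Triton permeabilization, cells were immunostained with rabbit anti-BCL6 (1:300, overnight 4° C), Alexa-488 secondary, CellMask-647 and Hoechst, then imaged at 10×, 4 fields/well.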

The structures appear in SMILES notation. Bounds are passed on as bounds.

With `CNC(=O)COc1cc2cc(Nc3nc(N4CCC(CN5CCC6(CC5)CN(c5ccc7c(c5F)CN(C5CCC(=O)NC5=O)C7=O)C6)CC4)ncc3Cl)ccc2n(C(C)C)c1=O` (stereo not shown) [Compound 71, 2-{[6-({5-chloro-2-[4-({2-[2-(2,6-dioxopiperidin-3-yl)-4-fluoro-1-oxo-2,3-dihydro-1H-isoindol-5-yl]-2,7-diazaspiro[3.5]nonan-7-yl}methyl)piperidin-1-yl]pyrimidin-4-yl}amino)-2-oxo-1-(propan-2-yl)-1,2-dihydroquinolin-3-yl]oxy}-N-methylacetamide], the DC50 was < 10 nM and the Dmax was in the range of 50 to 70%.

With `CNC(=O)COc1cc2cc(Nc3nc(N4CCC(O[C@H]5C[C@H](N6CCC(c7ccc8c(c7OC)CN(C7CCC(=O)NC7=O)C8=O)CC6)C5)CC4)ncc3Cl)ccc2n(C(C)C)c1=O` (stereo partly shown) [Compound 72, 2-[[6-[[5-chloro-2-[4-[3-[4-[2-(2,6-dioxo-3-piperidyl)-4-methoxy-1-oxo-isoindolin-5-yl]-1-piperidyl]cyclobutoxy]-1-piperidyl]pyrimidin-4-yl]amino]-1-isopropyl-2-oxo-3-quinolyl]oxy]-N-methyl-acetamide], the DC50 was < 10 nM and the greatest degradation seen (Dmax) is 50 to 70%.

With `CNC(=O)COc1cc2cc(Nc3nc(N4CCC(F)(CN5CCC6(CC5)CCN(c5cc(F)cc7c5CN(C5CCC(=O)NC5=O)C7=O)CC6)CC4)ncc3Cl)ccc2n(C(C)C)c1=O` (stereo not shown) [Compound 73, 2-{[6-({5-chloro-2-[4-({9-[2-(2,6-dioxopiperidin-3-yl)-6-fluoro-1-oxo-2,3-dihydro-1H-isoindol-4-yl]-3,9-diazaspiro [5.5]undecan-3-yl}methyl)-4-fluoropiperidin-1-yl]pyrimidin-4-yl}amino)-2-oxo-1-(propan-2-yl)-1,2-dihydroquinolin-3-yl]oxy}-N-methylacetamide], the half-maximal degradation concentration (DC50) was < 10 nM and the Dmax lay in the range of 50 to 70%.

As for `CNC(=O)COc1cc2cc(Nc3nc(N4CCN(C(C)(C)C5CCC6(CCN(c7ccc8c(c7)CN(C7CCC(=O)NC7=O)C8=O)C6)C5)CC4)ncc3Cl)ccc2n(C(C)C)c1=O` (stereo not shown) [Compound 74, 2-{[6-({5-chloro-2-[4-(2-{2-[2-(2,6-dioxopiperidin-3-yl)-1-oxo-2,3-dihydro-1H-isoindol-5-yl]-2-azaspiro[4.4]nonan-7-yl}propan-2-yl)piperazin-1-yl]pyrimidin-4-yl}amino)-2-oxo-1-(propan-2-yl)-1,2-dihydroquinolin-3-yl]oxy}-N-methylacetamide], the DC50 was < 10 nM and the Dmax was < 50%.

As for `CNC(=O)COc1cc2cc(Nc3nc(N4CCN(CC5CCC6(CCN(c7ccc8c(c7)CN(C7CCC(=O)NC7=O)C8=O)C6)C5)CC4)ncc3Cl)ccc2n(C(C)C)c1=O` (stereo not shown) [Compound 75, 2-{[6-({5-chloro-2-[4-({2-[2-(2,6-dioxopiperidin-3-yl)-1-oxo-2,3-dihydro-1H-isoindol-5-yl]-2-azaspiro[4.4]nonan-7-yl}methyl)piperazin-1-yl]pyrimidin-4-yl}amino)-2-oxo-1-(propan-2-yl)-1,2-dihydroquinolin-3-yl]oxy}-N-methylacetamide], the DC50 is < 10 nM and the Dmax lay in the range of 50 to 70%.

Consider `CNC(=O)COc1cc2cc(Nc3nc(N4CCN(C(C)(C)C5CCN(c6cc(F)c7c(c6)CN(C6CCC(=O)NC6=O)C7=O)CC5)CC4)ncc3Cl)ccc2n(C(C)C)c1=O` (stereo not shown) [Compound 76, 2-{[6-({5-chloro-2-[4-(2-{1-[2-(2,6-dioxopiperidin-3-yl)-7-fluoro-1-oxo-2,3-dihydro-1H-isoindol-5-yl]piperidin-4-yl}propan-2-yl)piperazin-1-yl]pyrimidin-4-yl}amino)-2-oxo-1-(propan-2-yl)-1,2-dihydroquinolin-3-yl]oxy}-N-methylacetamide], for which the DC50 is < 10 nM and the greatest degradation seen (Dmax) was in the range of 50 to 70%.

With `CNC(=O)COc1cc2cc(Nc3nc(N4CCN(C(C)(C)C5CCN(c6cc7c(c(OC)c6)C(=O)N(C6CCC(=O)NC6=O)C7)CC5)CC4)ncc3Cl)ccc2n(C(C)C)c1=O` (stereo not shown) [Compound 77, 2-{[6-({5-chloro-2-[4-(2-{1-[2-(2,6-dioxopiperidin-3-yl)-7-methoxy-1-oxo-2,3-dihydro-1H-isoindol-5-yl]piperidin-4-yl}propan-2-yl)piperazin-1-yl]pyrimidin-4-yl}amino)-2-oxo-1-(propan-2-yl)-1,2-dihydroquinolin-3-yl]oxy}-N-methylacetamide], the DC50 was < 10 nM and the Dmax fell in the range of 50 to 70%.

As to `CNC(=O)COc1cc2cc(Nc3nc(N4CCN(C(C)(C)C5CCN(c6ccc7c(c6OC)CN(C6CCC(=O)NC6=O)C7=O)CC5)CC4)ncc3Cl)ccc2n(C(C)C)c1=O` (stereo not shown) [Compound 78, 2-{[6-({5-chloro-2-[4-(2-{1-[2-(2,6-dioxopiperidin-3-yl)-4-methoxy-1-oxo-2,3-dihydro-1H-isoindol-5-yl]piperidin-4-yl}propan-2-yl)piperazin-1-yl]pyrimidin-4-yl}amino)-2-oxo-1-(propan-2-yl)-1,2-dihydroquinolin-3-yl]oxy}-N-methylacetamide], the DC50 was < 10 nM and the Dmax was < 50%.

For the compound `CNC(=O)COc1cc2cc(Nc3nc(N4CCC(O[C@H]5C[C@H](N6CCC(c7cc8c(cc7F)C(=O)N(C7CCC(=O)NC7=O)C8)CC6)C5)CC4)ncc3Cl)ccc2n(C(C)C)c1=O` (stereo partly shown) [Compound 79, 2-({6-[(5-chloro-2-{4-[(1r,3r)-3-{4-[2-(2,6-dioxopiperidin-3-yl)-6-fluoro-1-oxo-2,3-dihydro-1H-isoindol-5-yl]piperidin-1-yl}cyclobutoxy]piperidin-1-yl}pyrimidin-4-yl)amino]-2-oxo-1-(propan-2-yl)-1,2-dihydroquinolin-3-yl}oxy)-N-methylacetamide], the DC50 is < 10 nM and the Dmax fell in the range of 50 to 70%.

Turning to `CNC(=O)COc1cc2cc(Nc3nc(N4CCC(CN5CCC6(CC5)CN(c5cc(F)c7c(c5)CN(C5CCC(=O)NC5=O)C7=O)C6)CC4)ncc3Cl)ccc2n(C(C)C)c1=O` (stereo not shown) [Compound 80, 2-{[6-({5-chloro-2-[4-({2-[2-(2,6-dioxopiperidin-3-yl)-7-fluoro-1-oxo-2,3-dihydro-1H-isoindol-5-yl]-2,7-diazaspiro[3.5]nonan-7-yl}methyl)piperidin-1-yl]pyrimidin-4-yl}amino)-2-oxo-1-(propan-2-yl)-1,2-dihydroquinolin-3-yl]oxy}-N-methylacetamide], the 50% degradation concentration (DC50) was < 10 nM and the Dmax fell in the range of 50 to 70%.

Turning to `CNC(=O)COc1cc2cc(Nc3nc(N4CCC(O[C@H]5C[C@H](N6CCC(c7ccc8c(c7F)CN(C7CCC(=O)NC7=O)C8=O)CC6)C5)CC4)ncc3Cl)ccc2n(C(C)C)c1=O` (stereo partly shown) [Compound 81, 2-({6-[(5-chloro-2-{4-[(1r,3r)-3-{4-[2-(2,6-dioxopiperidin-3-yl)-4-fluoro-1-oxo-2,3-dihydro-1H-isoindol-5-yl]piperidin-1-yl}cyclobutoxy]piperidin-1-yl}pyrimidin-4-yl)amino]-2-oxo-1-(propan-2-yl)-1,2-dihydroquinolin-3-yl}oxy)-N-methylacetamide], the DC50 was < 10 nM and the Dmax lay in the range of 50 to 70%.

Values taken from patent US11986532B2 (Arvinas Operations, Inc., priority 2021, dated 2024).
